Experimental data from patent publication US7109339B2, “Substituted tricyclic gamma-carbolines as serotonin receptor agonists and antagonists” (Bristol-Myers Squibb Company, priority 2002, dated 2006).

melting point [°C]	SMILES
76 to 80	COc1ncc(C)cc1Nc1cc(C#N)c2c(c1)[C@@H]1CNCC[C@@H]1N2C [Example 169, (4aS,9bR)-8-(2-methoxy-5-methyl-pyridin-3-ylamino)-5-methyl-2,3,4,4a,5,9b-hexahydro-1H-pyrido[4,3-b]indole-6-carbonitrile]
140 to 144	COc1cc2c(c(C(F)(F)F)c1)N[C@H]1CCNC[C@@H]21
74 to 78	CC(C)(C)OC(=O)N1CC[C@H]2[C@@H](C1)c1cc(Br)cc(C#N)c1N2C(=O)OC(C)(C)C
